For test [1], the target named is T1, Carbonic anhydrase 1 (Homo sapiens, UniProt P00915). The test is described as follows: Competitive inhibition of human erythrocytes CA1 using 4-nitrophenylacetate as substrate by Lineweaver-Burk plot analysis.
Target sequence in this assay (P00915 2-261 limits assumed): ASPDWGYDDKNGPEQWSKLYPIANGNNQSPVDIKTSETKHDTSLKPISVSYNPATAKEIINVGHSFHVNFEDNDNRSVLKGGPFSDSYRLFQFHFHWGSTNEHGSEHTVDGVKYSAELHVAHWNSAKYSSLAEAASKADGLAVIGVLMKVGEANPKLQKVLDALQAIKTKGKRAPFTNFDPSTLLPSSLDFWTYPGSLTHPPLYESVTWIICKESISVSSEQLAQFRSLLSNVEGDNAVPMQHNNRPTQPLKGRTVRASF
The next test addresses Carbonic anhydrase 2 (Homo sapiens, UniProt P00918). Kind of test: Inhibition of human erythrocytes CA2 using 4-nitrophenylacetate as substrate by esterase assay.
In test [2] the target is T1, Carbonic anhydrase 1. The test is described as follows: Inhibition of human erythrocytes CA1 using 4-nitrophenylacetate as substrate by esterase assay.
Target sequence in this assay (P00915 whole entry): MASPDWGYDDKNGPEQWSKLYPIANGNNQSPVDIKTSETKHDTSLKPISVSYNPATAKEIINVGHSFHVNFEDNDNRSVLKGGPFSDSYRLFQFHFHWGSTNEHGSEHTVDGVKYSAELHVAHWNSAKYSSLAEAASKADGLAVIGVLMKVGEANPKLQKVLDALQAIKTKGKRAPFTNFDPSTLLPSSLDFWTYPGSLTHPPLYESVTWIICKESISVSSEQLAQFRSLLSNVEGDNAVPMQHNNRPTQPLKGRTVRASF

The source made the active and inactive calls. No cut-off for these calls is given here.

In general, Ki refers to the equilibrium dissociation constant of an inhibitor or competing ligand from its target.

`Oc1ccccc1`: the inhibition result on Carbonic anhydrase 1 [1] is “Active”.
With `CS(=O)(=O)n1cc(Br)c(=O)[nH]c1=O`, the Ki at Carbonic anhydrase 2 (read-out: Ki) came to 645 µM; on Carbonic anhydrase 1 [2] it was 428 µM. On Carbonic anhydrase 1 [1], the inhibition mode result is “Active”.
Turning to `Oc1ccccc1O`, on Carbonic anhydrase 1 [1], the inhibition result is “Active”.
Regarding `O=c1[nH]cc(CO)c(=O)[nH]1`, the Ki entry is “Not Active” on Carbonic anhydrase 2 and 49.5 µM at Carbonic anhydrase 1 [2].
Regarding `Oc1cccc(O)c1`, the inhibition mode entry on Carbonic anhydrase 1 [1] was “Active”.
For the molecule `Cn1ccc(=O)n(C)c1=O`, the Ki at Carbonic anhydrase 2 (read-out: Ki) turned out to be 166 µM; at Carbonic anhydrase 1 [2], 316 µM. Also, the inhibition mode result on Carbonic anhydrase 1 [1] is “Active”.
Regarding `CC(=O)n1cc(Br)c(=O)[nH]c1=O`, the figures for the Ki at Carbonic anhydrase 2 (read-out: Ki) and on Carbonic anhydrase 1 [2] were 778 µM and 464 µM, respectively. Moreover, the inhibition mode entry on Carbonic anhydrase 1 [1] is “Active”.
Regarding `Cc1ccc(S(=O)(=O)n2cc(Br)c(=O)[nH]c2=O)cc1`, the Ki at Carbonic anhydrase 2 (read-out: Ki) was found to be 28.9 µM; on Carbonic anhydrase 1 [2], 10.8 µM. Also, the inhibition mode result at Carbonic anhydrase 1 [1] was “Active”.
As to `Cc1cc(O)nc(O)n1`, the values for the Ki entry on Carbonic anhydrase 2 and on Carbonic anhydrase 1 [2] were “Not Active” and 57.8 µM, respectively. Moreover, the inhibition entry on Carbonic anhydrase 1 [1] is “Active”.

(Values after ChEMBL document CHEMBL3600346, “Synthesis and carbonic anhydrase inhibitory properties of novel uracil derivatives” (Bioorg Med Chem Lett, 2015).)
